This passage reports IC50 results from ChEMBL document CHEMBL5725756, “Bifunctional compounds and use for reducing uric acid levels” (2018).

In general, IC50 refers to the concentration needed to halve the response being measured.

Molecules are shown by their SMILES. Where only a bound is given, the exact number is not on record here.

The assay addresses Xanthine dehydrogenase/oxidase (Homo sapiens, UniProt P47989). As to the kind of experiment: xanthine oxidase activity: Xanthine oxidase inhibition was determined using a standard fluorescence-based assay for xanthine oxidase activity (McHale A, Grimes H, Coughlan M P: Int J Biochem. 10:317-9, 1979) with minor variations. […] Experiments on test compounds were performed in triplicate in multi-well plates using 10 concentrations of each compound that ranged over a 3-fold dilution.

Sequence of Xanthine dehydrogenase/oxidase (P47989 whole entry): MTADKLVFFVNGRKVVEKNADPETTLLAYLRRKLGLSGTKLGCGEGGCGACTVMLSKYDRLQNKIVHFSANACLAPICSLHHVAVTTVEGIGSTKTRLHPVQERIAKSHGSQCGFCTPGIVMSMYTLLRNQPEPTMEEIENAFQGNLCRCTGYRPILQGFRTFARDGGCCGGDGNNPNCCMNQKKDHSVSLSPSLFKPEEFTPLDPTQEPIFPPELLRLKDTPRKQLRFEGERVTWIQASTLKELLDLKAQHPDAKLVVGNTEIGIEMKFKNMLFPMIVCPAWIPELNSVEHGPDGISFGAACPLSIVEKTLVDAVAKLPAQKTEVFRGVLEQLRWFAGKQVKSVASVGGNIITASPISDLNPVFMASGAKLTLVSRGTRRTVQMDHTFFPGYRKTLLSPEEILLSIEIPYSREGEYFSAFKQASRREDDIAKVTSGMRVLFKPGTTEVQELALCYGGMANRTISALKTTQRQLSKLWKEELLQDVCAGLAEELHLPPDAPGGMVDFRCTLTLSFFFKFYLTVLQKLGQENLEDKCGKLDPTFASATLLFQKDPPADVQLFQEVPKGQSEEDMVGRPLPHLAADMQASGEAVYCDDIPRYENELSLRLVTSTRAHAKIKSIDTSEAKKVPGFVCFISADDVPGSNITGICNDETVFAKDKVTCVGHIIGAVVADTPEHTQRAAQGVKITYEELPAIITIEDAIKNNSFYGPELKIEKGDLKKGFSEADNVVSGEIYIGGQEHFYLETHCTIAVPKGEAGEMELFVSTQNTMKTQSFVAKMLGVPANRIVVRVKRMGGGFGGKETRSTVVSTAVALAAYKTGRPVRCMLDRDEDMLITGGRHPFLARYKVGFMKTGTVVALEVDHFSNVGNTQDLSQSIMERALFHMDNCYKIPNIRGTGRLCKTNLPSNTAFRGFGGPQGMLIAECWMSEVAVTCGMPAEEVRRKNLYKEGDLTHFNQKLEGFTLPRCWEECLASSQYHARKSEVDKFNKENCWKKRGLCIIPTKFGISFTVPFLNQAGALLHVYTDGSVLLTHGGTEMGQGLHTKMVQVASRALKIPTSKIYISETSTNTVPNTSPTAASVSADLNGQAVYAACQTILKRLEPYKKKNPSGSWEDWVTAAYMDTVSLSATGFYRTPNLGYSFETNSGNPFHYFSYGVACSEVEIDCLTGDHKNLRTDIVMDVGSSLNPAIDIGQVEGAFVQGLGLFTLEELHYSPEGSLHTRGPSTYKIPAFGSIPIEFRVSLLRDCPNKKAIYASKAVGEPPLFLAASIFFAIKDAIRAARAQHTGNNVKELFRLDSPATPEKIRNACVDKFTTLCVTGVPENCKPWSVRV

In turn, `O=C(O)CSc1nnc(Br)n1-c1ccc(C2CC2)c2ccccc12` displayed an IC50 of over 300 µM.
